We go through 1 molecule from patent publication US20080071116A1, “Modulators of Lysophosphatidic Acid (Lpa) Signaling and the Use Thereof” (THE BOARD OF REGENTS OF THE UNIVERSITY OF TEXAS SYSTEM, priority 2004, published 2008).

The target in test [1] is T1, LPA1 receptor (Homo sapiens, UniProt Q92633). Nature of the test: calcium mobilization in Sf9 insect cells expressing LPA1. It counts as cell-based. A general note: A change in cytosolic calcium serves as a functional read-out for many receptors and channels.
The subject of a further test is ERK1/2. Put plainly: ERK1/2 (p42/p44-MAPK) phosphorylation immunoblot in prostate cancer cells. It counts as cell-based, human. The settings on record: PC-3 and DU145 cells. Here is the method: (§1) The cells were then lysed in SDA sample buffer or ice-cold X-100 lysis buffer (1% Triton X-100, 50 mM HEPES [pH7.4], 150 mM NaCl, 1.5 mM MgCl2, 1 mM EGTA, 10% glycerol, 100 mM NaF, 10 mM Na pyrophosphate, and 1 mM aprotinin). Total cellular protein was resolved by SDS/PAGE, transferred to immobilon [poly (vinylidene difluoride)], and immunoblotted with antibodies following the protocols provided by manufactures. Immunocomplexes were visualized with an enhanced chemiluminescence detection kit (Amersham Pharmacia) using horseradish peroxidase-conjugated secondary antibodies (Bio-Rad).
For orientation: Immunoblotting shows a protein as a band on a membrane.

Test [2] deals with vasodilator-stimulated protein (VASP). Nature of the test: VASP phosphorylation in PC-3 cells. It counts as cell-based, human. As to the method: as §1
To determine the mechanisms regulating LPA-induced cell migration, actin filament binding proteins that link receptor signaling to lamellipodia formation were evaluated.

For another test, the target named is LPA2 receptor (Homo sapiens, UniProt Q9HBW0). Nature of the test: HA-Erk1 phosphorylation in HEK 293 T cells transfected with LPA2. In kind it is cell-based. Further details: expressed in transfected cells. The settings on record: LPA2 transfected HEK 293 T; 0.01, 0.1, or 1 μM. The source says:
(§2) We have also tested kinase activation by the LPA3 receptor subtype using OMPT as a tool. We determined whether activation of the LPA3 receptor by OMPT can be linked to ERK activation (related to MAP kinase signaling pathway) in mammalian cells, HEK 293 T cells, by co-transfecting hemagglutinin (HA)-tagged Erk1 (HA-Erk1) with either a control vector or an expression vector having LPA1, LPA2, or LPA3. […] There is no phosphorylation of HA-Erk1 at lower concentration of LPA or OMPT in the absence of LPA receptors. […] Thus, the data confirmed that OMPT, an LPA derivative, is a selective agonist for LPA3 receptor subtype, capable of inducing MAPK activation.

Test [3] addresses T2, LPA3 receptor (Homo sapiens, UniProt Q9UBY5).
T2 sequence (Q9UBY5 1-353): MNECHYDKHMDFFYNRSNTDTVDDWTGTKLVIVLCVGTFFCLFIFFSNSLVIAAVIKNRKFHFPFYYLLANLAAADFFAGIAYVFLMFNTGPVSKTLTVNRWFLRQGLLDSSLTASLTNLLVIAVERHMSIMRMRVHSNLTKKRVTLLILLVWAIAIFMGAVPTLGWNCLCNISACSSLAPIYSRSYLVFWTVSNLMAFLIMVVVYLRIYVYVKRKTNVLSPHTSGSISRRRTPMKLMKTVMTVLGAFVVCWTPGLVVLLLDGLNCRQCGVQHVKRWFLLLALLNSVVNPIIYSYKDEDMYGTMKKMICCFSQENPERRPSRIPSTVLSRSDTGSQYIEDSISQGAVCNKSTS
Put plainly: HA-Erk1 phosphorylation in HEK 293 T cells transfected with LPA3. In kind it is cell-based. Also noted: expressed in transfected cells. Conditions: LPA3 transfected HEK 293 T; 0.01, 0.1, or 1 μM.
Text: as §2

The target in test [4] is T2, LPA3 receptor. Nature of the test: calcium mobilization in Sf9 insect cells expressing LPA3. In kind it is cell-based. Also noted: expressed in transfected cells; host or cells: Sf9 insect cells.
Test [5] has as its target T1, LPA1 receptor. Nature of the test: GTP[γ-35S] binding assay, HEK293 T membranes, LPA1. Conditions: HEK293 transfected with LPA1, FIG. 59A. Also noted: expressed in transfected cells; host or cells: HEK293 T cells (crude microsomal membranes). It counts as biochemical. Here is the method: OMPT also enhances GTP [γ-^35S] binding in the cell membrane of HEK293 T cells expressing LPA3. The procedures for these GTP [γ-^35S] binding assays involve co-transfection of HEK293 T cells with expression vectors encoding one of the receptors for LPA (LPA1, LPA2, or LPA3) or S1P (S1P3/Edg3) by calcium phosphate precipitation, together with plasmids encoding three G proteins (rat Gi2α, cow β1, and cow γ2). After about 48 hours, cells were harvested and crude microsomal membranes were prepared. Membranes containing about 5 μg of protein were incubated in 0.1 ml of GTP-binding buffer (50 mM Hepes, 100 mM NaCl, 10 mM MgCl2, pH7.5) having 5 μg of saponin, 0.1% fatty acid-free BSA, 10 μM GDP, 0.1 nM GTP[γ-^35S] (1200 Ci/mmole) together with indicated concentrations of LPA or OMPT for about 30 min at 30° C. Membranes were collected using a 96-well Brandel Cell Harvester (Gaithersburg, Md.), and bound radionuclide was determined using a Packard TopCount liquid scintillation counter.
For orientation: GTPγS is a poorly hydrolysed GTP analogue; its binding reports G protein activation.

T1 sequence (Q92633 whole entry): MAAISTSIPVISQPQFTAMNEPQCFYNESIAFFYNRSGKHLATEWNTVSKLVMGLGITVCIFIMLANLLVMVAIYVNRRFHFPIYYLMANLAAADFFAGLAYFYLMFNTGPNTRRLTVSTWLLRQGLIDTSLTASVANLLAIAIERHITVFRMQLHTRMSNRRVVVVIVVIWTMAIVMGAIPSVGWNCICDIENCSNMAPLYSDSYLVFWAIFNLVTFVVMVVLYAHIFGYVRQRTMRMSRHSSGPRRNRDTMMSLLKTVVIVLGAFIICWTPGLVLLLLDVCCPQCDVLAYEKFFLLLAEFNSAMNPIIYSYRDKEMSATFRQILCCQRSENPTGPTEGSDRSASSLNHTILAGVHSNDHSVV
Sequence of LPA2 receptor (Q9HBW0 whole entry): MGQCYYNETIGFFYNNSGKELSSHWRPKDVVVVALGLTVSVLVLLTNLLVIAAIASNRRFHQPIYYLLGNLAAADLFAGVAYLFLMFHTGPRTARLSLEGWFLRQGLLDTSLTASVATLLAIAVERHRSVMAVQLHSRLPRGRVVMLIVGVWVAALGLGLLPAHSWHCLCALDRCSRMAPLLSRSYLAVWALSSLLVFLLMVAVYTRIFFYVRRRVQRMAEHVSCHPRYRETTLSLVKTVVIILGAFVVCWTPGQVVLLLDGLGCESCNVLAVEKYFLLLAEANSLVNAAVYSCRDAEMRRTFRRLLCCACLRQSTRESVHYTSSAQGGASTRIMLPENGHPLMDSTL

For `CCCCCCCC/C=C\CCCCCCCC(=O)OCC(COP(O)(O)=S)OC` (racemic) [OMPT, 1-oleoyl-sn2-O-methyl-rac-glycero-3-phosphothionate], the EC50 on LPA1 receptor [1] was > 10000 nM; on LPA3 receptor [4] (read-out: EC50 of increase in intracellular calcium concentration), 69 nM. Further, in the test with ERK1/2, the “activation of p42/p44-MAPK” value is on record as “efficiently activates”. In addition, in test [2], the “induction of VASP phosphorylation at Ser157 PKA site” value is “Neither OMPT nor EGF increased phosphorylation of VASP”. The HA-Erk1 phosphorylation result on LPA2 receptor is listed as “did not increase HA-Erk1 phosphorylation”; at LPA3 receptor [3], “stimulates Erk1 phosphorylation at all concentrations tested”. For the same molecule, the calcium mobilization result on LPA3 receptor [4] was “efficiently activates calcium mobilization”. The “activation in GTP[γ-35S] binding assay” value at LPA1 receptor [5] is “does not activate”.
